Experimental findings from ChEMBL document CHEMBL4138270, “Discovery of MK-8722: A Systemic, Direct Pan-Activator of AMP-Activated Protein Kinase” (ACS Med Chem Lett, 2018) are described below.

Calls of active or inactive are those of the source. No cut-off for these calls is given here.

For test [1], the target named is Sodium-dependent dopamine transporter (Homo sapiens) (UniProt Q01959). Briefly: Activity at DAT (unknown origin).
Test [2] has as its target AMP-activated protein kinase alpha-2/beta-1/gamma-3 (Homo sapiens) (UniProt P54646+Q9Y478+Q9UGI9). Briefly: Activation of CaMKK2-phosphorylated AMPK9 alpha2/beta1/gamma3 (unknown origin) using fluorescein-labeled SAMS peptide as substrate pretreated for 30 mins in presence of AMP followed by substrate addition measured after 60 mins by fluorescence assay. It is filed as protein-complex assay.

Test [3] deals with Mus musculus. Nature of the test: Antidiabetic activity in C57BL/6 eDIO mouse assessed as reduction in fasting blood glucose level at 30 mg/kg, po measured up to 120 mins. It is filed as functional, organism-based.
The subject of test [4] is Mus musculus. Nature of the test: In vivo activation of AMPK10 in C57BL/6 eDIO mouse assessed as increase in ratio of phosphorylated ACC to total ACC in skeletal muscle at 10 to 30 mg/kg, po measured at 2 to 3 hrs post dose by MSD electrochemiluminescence assay. It is filed as functional, organism-based.
For test [5], the target named is AMP-activated protein kinase (AMPK) alpha-1/beta-1/gamma-1 (Homo sapiens) (UniProt P54619+Q9Y478+Q13131). Nature of the test: Activation of CaMKK2-phosphorylated AMPK1 alpha1/beta1/gamma1 (unknown origin) assessed as ratio of 5-(6-chloro-5-(1-methyl-1H-indol-5-yl)-1H-benzo[d]imidazol-2-yloxy)-2-methylbenzoic acid maximum activation to test compound maximum activation at 50 uM using fluorescein-labeled SAMS peptide as substrate pretreated for 30 mins in presence of AMP followed by substrate addition measured after 60 mins by fluorescence assay relative to AMP. It is filed as protein-complex assay.
AMP-activated protein kinase (AMPK) alpha-1/beta-1/gamma-1 (Homo sapiens), sequence (P54619 whole entry): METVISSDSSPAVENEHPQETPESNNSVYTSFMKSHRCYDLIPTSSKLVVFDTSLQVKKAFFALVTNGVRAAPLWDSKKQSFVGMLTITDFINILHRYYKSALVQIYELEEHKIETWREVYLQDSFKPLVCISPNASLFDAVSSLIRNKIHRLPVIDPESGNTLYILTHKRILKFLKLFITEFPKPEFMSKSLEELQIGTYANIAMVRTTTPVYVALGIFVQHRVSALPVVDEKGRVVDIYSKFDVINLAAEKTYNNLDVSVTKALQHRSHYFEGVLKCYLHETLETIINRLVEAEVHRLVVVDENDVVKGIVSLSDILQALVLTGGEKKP
AMP-activated protein kinase (AMPK) alpha-1/beta-1/gamma-1 (Homo sapiens), sequence (Q13131 whole entry partner): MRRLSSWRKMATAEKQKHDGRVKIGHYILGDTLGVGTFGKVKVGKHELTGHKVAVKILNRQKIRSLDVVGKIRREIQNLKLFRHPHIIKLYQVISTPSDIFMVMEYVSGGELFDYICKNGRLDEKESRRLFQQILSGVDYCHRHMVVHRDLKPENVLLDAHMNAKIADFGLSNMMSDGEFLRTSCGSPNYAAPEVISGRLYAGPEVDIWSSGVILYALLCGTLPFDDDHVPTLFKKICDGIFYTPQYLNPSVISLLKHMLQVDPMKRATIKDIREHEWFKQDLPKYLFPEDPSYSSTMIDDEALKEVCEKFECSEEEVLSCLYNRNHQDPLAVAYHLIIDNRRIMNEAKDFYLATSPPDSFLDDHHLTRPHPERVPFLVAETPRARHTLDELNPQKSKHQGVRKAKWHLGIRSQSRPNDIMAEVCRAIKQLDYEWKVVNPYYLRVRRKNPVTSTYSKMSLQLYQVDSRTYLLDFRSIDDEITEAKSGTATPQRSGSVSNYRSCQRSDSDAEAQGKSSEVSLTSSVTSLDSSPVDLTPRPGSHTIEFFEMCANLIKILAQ
AMP-activated protein kinase (AMPK) alpha-1/beta-1/gamma-1 (Homo sapiens), sequence (Q9Y478 2-270 partner limits assumed): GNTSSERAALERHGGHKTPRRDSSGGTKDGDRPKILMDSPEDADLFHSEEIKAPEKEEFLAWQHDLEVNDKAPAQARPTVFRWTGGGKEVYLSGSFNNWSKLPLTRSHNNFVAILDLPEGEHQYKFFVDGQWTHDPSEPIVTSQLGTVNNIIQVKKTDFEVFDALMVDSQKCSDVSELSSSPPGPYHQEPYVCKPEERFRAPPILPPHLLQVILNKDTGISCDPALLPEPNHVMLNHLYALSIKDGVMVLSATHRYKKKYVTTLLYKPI

In test [6] the test system is Mus musculus. Briefly: In vivo activation of AMPK1 in C57BL/6 eDIO mouse assessed as increase in ratio of phosphorylated ACC to total ACC in liver at 10 to 30 mg/kg, po measured at 2 to 3 hrs post dose by MSD electrochemiluminescence assay. It is filed as functional, organism-based.
Test [7] concerns Mus musculus. Nature of the test: In vivo activation of AMPK10 in C57BL/6 db/+ mouse assessed as ratio of phosphorylated ACC to total ACC in skeletal muscle at 30 mg/kg, po administered as single dose measured after 2 hrs by MSD electrochemiluminescence assay relative to control.
Test [8] has as its system Mus musculus. Nature of the test: Antidiabetic activity in C57BL/6 eDIO mouse assessed as reduction in blood glucose level at 10 to 30 mg/kg, po pretreated for 1 hr followed by glucose-challenge measured up to 90 mins in presence of xylose by OGTT. It is filed as functional, organism-based.
The target in test [9] is AMPK alpha2/beta1/gamma1 (Homo sapiens) (UniProt P54646+P54619+Q9Y478). Nature of the test: Activation of CaMKK2-phosphorylated AMPK7 alpha2/beta1/gamma1 (unknown origin) using fluorescein-labeled SAMS peptide as substrate pretreated for 30 mins in presence of AMP followed by substrate addition measured after 60 mins by fluorescence assay. It is filed as protein-complex assay.
AMPK alpha2/beta1/gamma1 (Homo sapiens), sequence (P54619 whole entry partner): as the sequence (P54619 whole entry) above
AMPK alpha2/beta1/gamma1 (Homo sapiens), sequence (P54646 whole entry): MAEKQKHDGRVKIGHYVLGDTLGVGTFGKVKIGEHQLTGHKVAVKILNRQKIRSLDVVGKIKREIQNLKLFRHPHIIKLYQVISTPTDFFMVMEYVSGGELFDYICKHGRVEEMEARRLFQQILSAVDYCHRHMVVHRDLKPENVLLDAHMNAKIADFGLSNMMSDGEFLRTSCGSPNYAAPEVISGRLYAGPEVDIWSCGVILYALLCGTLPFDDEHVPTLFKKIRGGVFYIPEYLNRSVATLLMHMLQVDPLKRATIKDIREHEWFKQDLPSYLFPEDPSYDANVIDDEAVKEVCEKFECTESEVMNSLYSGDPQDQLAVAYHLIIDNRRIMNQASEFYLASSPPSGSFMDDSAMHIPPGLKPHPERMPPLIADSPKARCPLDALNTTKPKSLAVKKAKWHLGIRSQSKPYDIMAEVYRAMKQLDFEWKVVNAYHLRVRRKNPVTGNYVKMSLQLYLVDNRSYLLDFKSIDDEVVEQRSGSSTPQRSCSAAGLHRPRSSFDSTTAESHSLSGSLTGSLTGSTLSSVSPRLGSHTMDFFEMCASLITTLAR
AMPK alpha2/beta1/gamma1 (Homo sapiens), sequence (Q9Y478 2-270 partner limits assumed): as the sequence (Q9Y478 2-270 partner limits assumed) above

Sodium-dependent dopamine transporter (Homo sapiens), sequence (Q01959 whole entry): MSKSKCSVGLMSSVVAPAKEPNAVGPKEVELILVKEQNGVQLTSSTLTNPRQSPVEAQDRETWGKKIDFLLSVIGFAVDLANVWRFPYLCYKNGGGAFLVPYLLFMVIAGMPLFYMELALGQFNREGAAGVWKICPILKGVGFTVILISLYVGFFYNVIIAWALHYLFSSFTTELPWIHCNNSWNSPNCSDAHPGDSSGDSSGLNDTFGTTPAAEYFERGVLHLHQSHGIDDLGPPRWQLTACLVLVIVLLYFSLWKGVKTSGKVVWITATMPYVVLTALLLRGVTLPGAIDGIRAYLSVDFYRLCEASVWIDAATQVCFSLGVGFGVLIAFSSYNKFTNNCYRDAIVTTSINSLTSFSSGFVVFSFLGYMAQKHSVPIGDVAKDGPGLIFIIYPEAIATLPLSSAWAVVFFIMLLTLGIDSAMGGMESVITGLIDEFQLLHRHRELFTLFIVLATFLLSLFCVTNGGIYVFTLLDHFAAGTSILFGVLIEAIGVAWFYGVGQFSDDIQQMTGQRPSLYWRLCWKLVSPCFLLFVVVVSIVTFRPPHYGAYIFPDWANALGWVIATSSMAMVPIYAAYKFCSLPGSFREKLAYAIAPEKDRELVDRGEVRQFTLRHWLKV
AMP-activated protein kinase alpha-2/beta-1/gamma-3 (Homo sapiens), sequence (P54646 whole entry): as the sequence (P54646 whole entry) above
AMP-activated protein kinase alpha-2/beta-1/gamma-3 (Homo sapiens), sequence (Q9UGI9 whole entry partner): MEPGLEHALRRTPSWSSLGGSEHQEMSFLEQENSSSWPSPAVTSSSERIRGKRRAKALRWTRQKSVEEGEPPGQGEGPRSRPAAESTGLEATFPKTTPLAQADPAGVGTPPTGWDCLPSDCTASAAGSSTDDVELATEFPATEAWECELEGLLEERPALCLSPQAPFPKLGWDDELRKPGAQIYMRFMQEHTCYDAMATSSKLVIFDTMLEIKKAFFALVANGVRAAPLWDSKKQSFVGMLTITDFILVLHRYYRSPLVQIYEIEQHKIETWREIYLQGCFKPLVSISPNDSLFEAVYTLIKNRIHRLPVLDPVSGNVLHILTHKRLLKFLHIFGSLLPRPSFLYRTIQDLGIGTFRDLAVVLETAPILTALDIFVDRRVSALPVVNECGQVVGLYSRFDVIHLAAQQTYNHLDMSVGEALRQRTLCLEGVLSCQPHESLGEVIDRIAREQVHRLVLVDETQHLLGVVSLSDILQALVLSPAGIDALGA
AMP-activated protein kinase alpha-2/beta-1/gamma-3 (Homo sapiens), sequence (Q9Y478 2-270 partner limits assumed): as the sequence (Q9Y478 2-270 partner limits assumed) above

In [1], `O[C@@H]1CO[C@H]2[C@@H]1OC[C@H]2Oc1nc2nc(-c3ccc(-c4ccccc4)cc3)c(Cl)cc2[nH]1` gave an Activity of 3 to 10 µM. Further, the result (in test [2]; in the test on Mus musculus [3]; in the test on Mus musculus [4]; in the test with Mus musculus [6]; in the test with Mus musculus [8]; in test [9]) was Active. The Ratio in test [5] was determined as 0.5. Also, the “fold change (FC)” value with Mus musculus [7] is 2.9.
